From ChEMBL document CHEMBL3751673, “Illuminating the binding interactions of galactonoamidines during the inhibition of β-galactosidase (E. coli)” (Bioorg Med Chem, 2016)

Target: Beta-galactosidase (Escherichia coli, UniProt Q8VNN2)
Experiment: Competitive inhibition of Escherichia coli beta-galactosidase assessed as p-nitrophenyl-beta-D-galactopyranoside substrate hydrolysis by UV/Vis spectroscopy

Chain of Beta-galactosidase (Q8VNN2 whole entry): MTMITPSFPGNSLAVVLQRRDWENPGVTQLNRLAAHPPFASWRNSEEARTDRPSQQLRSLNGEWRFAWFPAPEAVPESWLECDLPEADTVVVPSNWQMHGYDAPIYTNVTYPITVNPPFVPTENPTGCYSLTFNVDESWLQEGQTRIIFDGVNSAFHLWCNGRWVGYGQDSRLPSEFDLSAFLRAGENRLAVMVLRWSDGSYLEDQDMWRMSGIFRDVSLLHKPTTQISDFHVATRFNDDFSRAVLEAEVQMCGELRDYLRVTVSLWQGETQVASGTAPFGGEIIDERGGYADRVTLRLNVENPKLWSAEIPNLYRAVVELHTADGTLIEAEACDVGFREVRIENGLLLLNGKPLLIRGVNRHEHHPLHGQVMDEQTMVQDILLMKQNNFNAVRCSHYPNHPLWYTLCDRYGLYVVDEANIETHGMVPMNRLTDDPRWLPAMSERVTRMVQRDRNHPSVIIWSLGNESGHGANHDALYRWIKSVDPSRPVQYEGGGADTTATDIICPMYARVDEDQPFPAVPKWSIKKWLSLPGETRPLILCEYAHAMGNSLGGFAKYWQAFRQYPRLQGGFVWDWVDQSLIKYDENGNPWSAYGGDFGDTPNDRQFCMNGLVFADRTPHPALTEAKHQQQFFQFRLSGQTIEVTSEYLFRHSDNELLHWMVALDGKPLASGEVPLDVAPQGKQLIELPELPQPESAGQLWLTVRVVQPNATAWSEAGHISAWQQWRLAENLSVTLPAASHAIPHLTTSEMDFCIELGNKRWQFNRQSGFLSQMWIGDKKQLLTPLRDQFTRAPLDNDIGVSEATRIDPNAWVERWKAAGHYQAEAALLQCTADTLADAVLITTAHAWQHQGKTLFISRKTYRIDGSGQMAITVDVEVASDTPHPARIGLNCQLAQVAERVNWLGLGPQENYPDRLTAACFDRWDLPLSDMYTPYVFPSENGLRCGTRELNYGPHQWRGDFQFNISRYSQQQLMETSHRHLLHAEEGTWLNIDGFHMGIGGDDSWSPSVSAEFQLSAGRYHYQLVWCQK

CO[C@H]1C(NCc2ccc(C)cc2)=N[C@H](CO)[C@H](O)[C@@H]1O
Ki: 42 nM

CO[C@@H]1[C@H](O)[C@@H](O)C(NCc2ccc(C)cc2)=N[C@@H]1CO
Ki: 32 nM

Cc1ccc(CNC2=N[C@H](CO)[C@H](O)[C@H](O)C2)cc1
Ki: 1.3 nM

Cc1ccc(C/N=C2\N[C@H](CO)[C@H](O)[C@H](O)[C@H]2O)cc1
Ki: 0.06 nM
